Key:
[1] = Acute toxicity (LD 50) in the mouse; assay type: in vivo; details: mouse, in vivo, po
Text: (§1) The oral LD-50 is 16.50 g/kg for DL and 18.25 g/kg for L(+).

[2] = Acute toxicity (LD 50) in the mouse; assay type: in vivo; details: mouse, in vivo, ip, intraperitoneal, mice
[3] = Solubility and hygroscopicity; assay type: physicochemical
mice [4] = test: Acute toxicity (LD 50) in the mouse; assay type: in vivo; details: for LD50: intraperitoneal, mice; for LD-50: oral, mouse
depression = test: Clinical tests in depression; assay type: in vivo; details: human
Text: (§2) The importance of the compounds according to the invention was confirmed by clinical tests.

[5] = Pharmacological study, overall comparison; assay type: in vivo; details: for pharmacological properties: in vivo
[6] = system: amphetamine hyperactivity; test: Potentiation of amphetamine hyperactivity (actography); assay type: in vivo, mouse
Text: (f) Potentiation of amphetamine hyperactivity.

mice [7] = test: Acute toxicity (LD 50) in the mouse; assay type: in vivo
Text: as §1

reserpine ptosis = test: Reserpine anti-ptosis effect; assay type: in vivo, mouse
Protocol: (d) A reserpine anti-ptosis effect. Increasing doses of the test product were subcutaneously administered to male mice, 30 minutes before intraperitoneal injection of reserpine. The ptosis was measured every half-hour for 5 hours by the method of Rubin et Coll. (observation of the occlusion of the lids of each eye). The percentage protection against ptosis was calculated, compared with controls. Lithium acetyl tryptothanate reduced ptosis produced by reserpine, to an extent which increased up to a dose of 800 mg/kg (45% reduction).

[8] = system: hyperactivity due to the association of amphetamine and chlorodiazepoxide; test: Inhibition of hyperactivity due to the association of amphetamine and chlorodiazepoxide (actography); assay type: in vivo, mouse; details: 500 and 1000 mg/kg i.p., 1 hour and 3 hours before (+) amphetamine sulphate (5 mg/kg) and chlorodiazepoxide (25 or 50 mg/kg)
Protocol: (b) Inhibition of hyperactivity due to the association of amphetamine and chlorodiazepoxide;
Simultaneous intraperitoneal administration of (+) amphetamine sulphate (5 mg/kg) and chlorodiazepoxide (25 or 50 mg/kg) to mice produced hyperactivity which was measured by the actography method, wherein the mice are placed in pairs in three suspended cages and their movements are recorded.

rat = test: Hypothermic effect on the rat (rectal temperature); assay type: in vivo; details: 1 g/kg intraperitoneal
Text: (a) A hypothermic effect on the rat.

[9] = system: analgesia produced by morphine; test: Heating plate test (analgesia produced by morphine); assay type: in vivo
exploratory activity = test: Exploratory activity in the perforated board test; assay type: in vivo, mouse; details: mice
Text: (c) The reduction of exploratory activity in the `perforated board` test (Boissiet and Simon-Arch-Int. Pharmacodyn. 1964, 147, 3-4).

[10] = system: manic-depressive psychoses; test: Clinical tests in manic-depressive psychoses; assay type: in vivo, human
Protocol: as §2
Lithium N-acetyl tryptophanate was used to treat manic-depressive psychoses.
A person was treated for a manic-depressive psychosis for 6 years. Relapses normally occurred in spring. They were not prevented either by tricyclic drugs or by IMAO substances. Treatment with lithium carbonate produced oligo-menorrhoea, although the patient normally had regular periods.

[11] = Acute toxicity (LD-50) in the rat; details: in vivo
Text: as §1

gastric ulcers [12] = test: Anti-ulcer effect, Shay method (ligature of the pylorus); assay type: in vivo, mouse; details: for ED50: mouse, read-out: DE-50 (anti-ulcer dose 50)
Protocol: (§3) Mg acetyl tryptophanate dissolved in twice-distilled water was administered 48 hours before, 24 hours before and at the moment when the mouse was put under constraint, or 24 hours before and 1 hour before the ligature of the pylorus.
(§4) The DE-50 (anti-ulcer dose 50) of orally-administered Mg acetyl tryptophanate, measured by the stress-ulcer method, was 1700 mg/kg. The DE-50 of intraperitoneally administered Mg acetyl tryptophanate was 230 mg/kg, measured by the stress-ulcer method (i.e. one-tenth of the LD-50) compared with 16 mg/kg (33/100 of the LD-50) for prifinium bromide; measured by the Shay method, the DE-50 was 340 mg/kg (14/100 of the LD-50) for Mg acetyl tryptophanate, compared with 25 mg/kg (52/100 of the LD-50) for prifinium bromide under the same conditions.

gastric ulcers [13] = test: Anti-ulcer effect, stress-ulcer method of Rossi et Coll.; assay type: in vivo, mouse; details: for DE-50 as fraction of the LD-50 / ED50: stress-ulcer method; for ED50: mouse, read-out: DE-50 (anti-ulcer dose 50)
Protocol: as §3, §4

[14] = system: pentobarbitone sleeping time; test: Pentobarbitone sleeping time; assay type: in vivo; details: mouse, 35 mg/kg pentobarbitone 5 minutes before sub-cutaneous product

In the case of `CC(=O)NC(Cc1c[nH]c2ccccc12)C(=O)O` (racemic) [Lithium N-acetyl tryptophanate (DL), Li N-acetyl tryptophan (DL)], the LD50 [1] was 8700 mg/kg, the LD50 [2] was 3400 mg/kg and the solubility in water [3] was “very soluble”.

In the case of `CC(=O)NC(Cc1c[nH]c2ccccc12)C(=O)O` (racemic) [Magnesium N-acetyl tryptophanate (DL), magnesium N-acetyl tryptophanate (DL)], the LD50 [1] was 16500 mg/kg, the “LD50” value (mice [4]) was 2800 mg/kg and the hygroscopicity [3] was “very hygroscopic”.

For `CC(=O)NC(Cc1c[nH]c2ccccc12)C(=O)O` (racemic) [Monoethanolamine N-acetyl tryptophanate, monoethanolamine N-acetyl tryptophanate (DL)], the “effect on sleep, sthenic action and headaches” value (“effect on sleep” below) (depression) was “producing normal sleep, accompanied by a daily sthenic action and the control of refractory headaches”, the “use in the treatment of depression” value (depression) was “of use in the treatment of depression” and the LD-50 (mice [4]) was “above 18 g/kg”. The “solubility in chlorine and hydrocarbon derivatives” value ([3]; chlorine and hydrocarbon derivatives) was “insoluble”, the solubility in water [3] was “fairly soluble” and the pharmacological properties [5] was “very similar to those of magnesium N-acetyl tryptophanate”.

In the case of `CC(=O)NC(Cc1c[nH]c2ccccc12)C(=O)O` (racemic) [Morpholine N-acetyl tryptophanate, morpholine N-acetyl tryptophanate], the “effect on sleep” value (depression) was “producing normal sleep, accompanied by a daily sthenic action and the control of refractory headaches”, the “use in the treatment of depression” value (depression) was “of use in the treatment of depression” and the LD-50 (mice [4]) was 16000 mg/kg. For the same compound, the “solubility in chlorinated solvents” value ([3]; chlorinated solvents) was “slightly soluble”, the solubility in water [3] was “very soluble” and the pharmacological properties [5] was “very similar to those of magnesium N-acetyl tryptophanate”.

In the case of `C[C@H](N)Cc1ccccc1` [Dexamphetamine sulphate, dexamphetamine sulphate, reference compound], the “excitation, dexamphetamine sulphate alone” value ([6]; 5 mg/kg intraperitoneal, mouse) was “did not produce very marked excitation”.

In the case of `CC(=O)N[C@@H](Cc1c[nH]c2ccccc12)C(=O)O` [Lithium N-acetyl tryptophanate L(+), Lithium N-acetyl tryptophanate in the L(+) form], the LD50 [1] was 10500 mg/kg, the LD50 [2] was 3250 mg/kg and the “solubility in chlorinated and aromatic solvents” value ([3]; chlorinated and aromatic solvents) was “very slightly soluble”. For the same compound, the “solubility in ethyl alcohol” value ([3]; ethyl alcohol) was “soluble” and the solubility in water [3] was “soluble”.

In the case of `CC(=O)NC(Cc1c[nH]c2ccccc12)C(=O)O` (stereo not drawn) [Lithium N-acetyl tryptophanate, lithium N-acetyl tryptophanate], the toxicity in words (mice [7]; mouse, in vivo) was “only slightly toxic”, the “oral toxicity in words” value (mice [7]; oral) was “low” and the “reduction of ptosis produced by reserpine” value (reserpine ptosis; 800 mg/kg subcutaneous, 30 minutes before i.p. reserpine, male mice) was 45%. For the same compound, the “excitation with 5 mg/kg dexamphetamine sulphate plus product (actography)” value ([6]; 500 mg/kg with 5 mg/kg i.p. dexamphetamine sulphate, mice) was “to a considerably greater extent than with dexamphetamine sulphate alone”, the reduction in hyperactivity [8] was “very marked reduction in hyperactivity” and the “duration of progressive reduction of rectal temperature after injection” value (rat) was 110 min. The “temperature of the rectum” value (rat) was “progressively reduces the temperature of the rectum”, the “effect on analgesia produced by morphine” value [9] was “did not affect analgesia produced by morphine” and the mobility (exploratory activity; 1000 mg/kg intraperitoneal) was “very marked increase in mobility”. For the same compound, the exploratory activity (exploratory activity; 1500 mg/kg intraperitoneal) was “significant reduction in exploratory activity”, the tolerance by patients ([10]; human, in vivo) was “tolerated by the patients better than lithium carbonate” and the prevention of relapses ([10]; manic-depressive psychoses) was “appeared to prevent relapses into cyclothymia”.

In the case of `O=C(O)O` [Lithium carbonate, lithium carbonate], the lithaemia ([10]; observation No. 1) was at most 1 meq, the “side effect on menstruation” value ([10]; observation No. 1) was “oligo-menorrhoea” and the “side effects during treatment” value ([10]; observation No. 1) was “nausea and attacks of vomiting”.

For `CC(=O)N[C@@H](Cc1c[nH]c2ccccc12)C(=O)O` [Magnesium N-acetyl tryptophanate L(+), L(+) magnesium N-acetyl tryptophanate], the LD50 [1] was 18200 mg/kg, the “LD50” value (mice [4]) was 2300 mg/kg and the solubility in water [3] was “very soluble”.

For `CC(=O)NC(Cc1c[nH]c2ccccc12)C(=O)O` (stereo not drawn) [Magnesium N-acetyl tryptophanate, magnesium N-acetyl tryptophanate], the “effect on sleep” value (depression) was “producing normal sleep, accompanied by a daily sthenic action and the control of refractory headaches”, the “use in the treatment of depression” value (depression) was “of use in the treatment of depression” and the “reserpine anti-ptosis effect in words” value (reserpine ptosis; mouse, in vivo) was “only a very slight reserpine anti-ptosis effect”. For the same compound, the LD50 ([11]; ip, intraperitoneal) was 1350 mg/kg, the LD50 ([11]; oral) was over 8000 mg/kg and the “action compared with lithium acetyl tryptophanate” value ([5]; measured by the same tests) was “slower but more prolonged”. For the same compound, the “DE-50 as fraction of the LD-50” value (gastric ulcers [12]) was 14/100, the ED50 (gastric ulcers [12]) was 340 mg/kg and the “anti-ulcer effect compared with prifinium bromide” value (gastric ulcers [13]; both ulcer methods) was “slightly lower anti-ulcer effect than prifinium bromide”. For the same compound, the “safety in therapy compared with prifinium bromide” value (gastric ulcers [13]; both ulcer methods) was “safer in therapy”, the “DE-50 as fraction of the LD-50” value (gastric ulcers [13]; intraperitoneal) was “one-tenth” and the ED50 (gastric ulcers [13]; ip, intraperitoneal) was 230 mg/kg. The ED50 (gastric ulcers [13]; oral) was 1700 mg/kg and the average sleeping time [14] was “increased the average sleeping time to an extent proportional to the dose”.

For `CC[N+]1(CC)CCC(=C(c2ccccc2)c2ccccc2)C1C` (stereo not drawn) [Prifinium bromide, prifinium bromide, reference compound], the “DE-50 as fraction of the LD-50” value (gastric ulcers [12]) was 52/100, the ED50 (gastric ulcers [12]) was 25 mg/kg and the “DE-50 as fraction of the LD-50” value (gastric ulcers [13]; intraperitoneal) was 33/100. The ED50 (gastric ulcers [13]; ip, intraperitoneal) was 16 mg/kg.

Reference: US4299838A, “Tryptophan derivatives having an increased effect on the central nervous system” (priority 1974, dated 1981)
